Assay results from PMC9604255, “Discovery of Simple Diacylhydrazine-Functionalized Cinnamic Acid Derivatives as Potential Microtubule Stabilizers” (International Journal of Molecular Sciences, 2022).
Like-named read-outs stand apart in the source and are kept apart here.

Experiments:
A549 cancer cells = assay: MTT antiproliferative assay, A549; format: cell-based, human; settings: MTT assay after 48 h
Text: (§1) An A549 (human non-small cell lung cancer cell line) cell line was purchased from the Shanghai Cell Bank of the Chinese Academy of Sciences; PC-3 (human prostate cancer cell line) cell line was donated by the Key Laboratory of Natural Product Chemistry of the Chinese Academy of Sciences of Guizhou Province; HepG2 (human liver cancer cell line) and NRK 52E (normal rat kidney cell line) cell line was donated by Guizhou Medical University; all cell lines were kept by the laboratory.
(§2) The antiproliferative activity of target compounds against A549, PC-3, HepG2, and NRK-52E were determined by MTT assay, as described in previous articles. The assay was recorded at 490 nm by an Infinite® M200 PRO multimode microplate (Tecan, Männedorf, Switzerland).

PC-3 cancer cells = assay: MTT antiproliferative assay, PC-3; format: cell-based, human; settings: MTT assay after 48 h
Text: as §1, §2

HepG2 cancer cells = assay: MTT antiproliferative assay, HepG2; format: cell-based, human; settings: read-out: IC50 HepG2
Text: as §1, §2

NRK-52E cells = assay: MTT cytotoxicity assay, normal NRK-52E cells; format: cell-based; settings: MTT assay after 48 h, normal rat kidney cell line
Text: as §1, §2

tubulin [1] = assay: Tubulin polymerization via TEM; format: biochemical; settings: 20 μM + 4 mg/mL tubulin
Description: Briefly, according to the protocol of tubulin polymerization assay, the 100 μL centrifuge tubes were pre-warmed at 37 °C, and the reaction assay contained 20 μL 4 mg/mL tubulin in G-PEM buffer. Then, 2 μL (10×) compounds solution was added. Finally, the assay was carried out at 37 °C for 30 min. The formed microtubules were transferred to Formvar-caron-coated copper grids, negatively stained with 1% phosphotungstic acid, and visualized under a transmission electron microscope.

tubulin [2] = biological target: T1, tubulin (Sus scrofa, UniProt P02554); assay: Tubulin polymerization assay in vitro; format: biochemical; settings: 10 μM and 20 μM; 4 mg/mL tubulin, 37 °C, 340 nm
T1 construct: purchased Cytoskeleton, Inc. BK004P
Description: The tubulin polymerization assay in vitro was determined by HTS-Tubulin Polymerization Assay Kit (#BK004P, Cytoskeleton, Inc., Denver, CO, USA) as described in previous articles. The plate was pre-warmed at 37 °C, and the reaction assay contained 100 μL 4 mg/mL tubulin in G-PEM buffer. Then, 10 μL (10×) compounds solution or 100 μM paclitaxel solution as a control. Finally, the polymerization was carried out at 37 °C and recorded at 340 nm each 10 s for 70 min using Cytation™ 5 multi-mode readers.

HepG2 cells [3] = assay: Hoechst apoptosis experiment; format: cell-based, human; settings: HepG2, 6 μM, 24 h
Description: In this assay, HepG2 cells were seeded in 6-well plates, after 24 h of incubation, different compounds were added at various concentrations, and cells were incubated again for 24 h. Afterward, the medium was removed and cells were washed twice with phosphate-buffered saline (PBS, 10 mM, pH 7.3), and fixed with 4% paraformaldehyde for 15 min at room temperature, then stained with […] Hoechst 33258 in PBS for 20 min at 37 °C in the dark. After incubation, the cells were incubated with an anti-fluorescent attenuator and imaged with an inverted fluorescence microscope.

[4] = test system: A549, PC-3 and HepG2 cancer cell lines; assay: MTT antiproliferative assay, three cancer lines together; format: cell-based; settings: Homo sapiens; range over A549, PC-3 and HepG2; read-out: IC50 values against three cancer lines
Text: as §1, with “laboratory. Cells were maintained in RPMI 1640 or DMEM complete medium.” for “laboratory.”
as §2, with “Switzerland). Curcumin, gefitinib, and colchicine were used as positive controls.” for “Switzerland).”

HepG2 cells [5] = assay: Cell cycle analysis by flow cytometry; format: cell-based, human; settings: HepG2, 24 μM, 24 h (0 μM: 17.68%)
Description: The cells in the 6-well plates were carefully collected 24 h after dosing. After the cells were washed with pre-cooled PBS, the pre-cooled 70% ethanol solution was added for fixation (4 °C overnight). After that, the cells were washed with PBS, and incubated with 1 mg/mL RNase A for 30 min at 37 °C). Then, […] PI staining solution was added and incubated in the dark for 30 min at 4 °C. Finally, the cell arrest was analyzed by the FACSCalibur™ flow cytometer (Becton Dickinson Immunocytometry Systems, San Jose, CA, USA) as previously described.

A549 cells = assay: Scratch test (cell migration); format: cell-based, human
Description: According to the previous methods, A549 cells of the logarithmic growth stage were cultured in 6-well plates with two lines on the back, with each well containing a density of 1 × 10^6 cells/mL. After the cells adhered to the wall, three uniform thin lines were drawn in each well by a sterile pipette tip. Afterward, the medium containing 1% fetal bovine serum (FBS) and various concentrations of compounds were added in wells. After the different time of incubation, the cells were performed by an inverted fluorescence microscope. Then the scratch healing rate was calculated: Migration distance (n h) = edge distance (0 h) − edge distance (12 h or 24 h).

[6] = test system: cellular microtubule network of HepG2 cells; assay: Immunofluorescence staining of tubulin; format: cell-based, human; settings: 3 and 6 μM, 24 h
Description: According to the previous methods, compound solutions of various concentrations were added to a 6-well plate in which HepG2 cells had been seeded for 12 h. After incubation for 24 h and washed with phosphate-buffered saline (PBS, 10 mM, pH 7.3), each well was treated with 4% formaldehyde solution for 15 min and washed with 0.1% Triton X-100 of phosphate-buffered saline (PBS, 10 mM, pH 7.3). After that, the fixed cells were incubated with diluted tubulin-tracker red for 40 min in a dark environment, followed by washing three times by 0.1% Triton X-100 of phosphate-buffered saline (PBS, 10 mM, pH 7.3). Finally, each well was added DAPI (2 μg/mL). Finally, the results were observed using a Nikon ECLIPSE Ti-S fluorescent microscope (Nikon Co, Tokyo, Japan).

[7] = Homo sapiens, HepG2, 48 h, MTT assay after 48 h
[8] = A549, 6 μM, 12 h (control 12.5%)
[9] = A549, 6 μM, 24 h (control 24.4%)

T1 sequence (P02554 whole entry): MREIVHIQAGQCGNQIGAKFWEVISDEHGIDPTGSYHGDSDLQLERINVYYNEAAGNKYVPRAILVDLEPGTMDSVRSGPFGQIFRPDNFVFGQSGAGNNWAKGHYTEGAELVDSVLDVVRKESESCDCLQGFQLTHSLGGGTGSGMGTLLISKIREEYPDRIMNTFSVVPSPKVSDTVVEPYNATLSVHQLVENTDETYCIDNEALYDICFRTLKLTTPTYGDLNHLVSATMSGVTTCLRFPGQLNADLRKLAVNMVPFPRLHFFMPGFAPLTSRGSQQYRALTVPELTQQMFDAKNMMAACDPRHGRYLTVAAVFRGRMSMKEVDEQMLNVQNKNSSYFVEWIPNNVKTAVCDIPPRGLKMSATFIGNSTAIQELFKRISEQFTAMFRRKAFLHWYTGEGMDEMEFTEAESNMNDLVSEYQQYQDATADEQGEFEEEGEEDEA
T1 sequence (P02550 whole entry partner): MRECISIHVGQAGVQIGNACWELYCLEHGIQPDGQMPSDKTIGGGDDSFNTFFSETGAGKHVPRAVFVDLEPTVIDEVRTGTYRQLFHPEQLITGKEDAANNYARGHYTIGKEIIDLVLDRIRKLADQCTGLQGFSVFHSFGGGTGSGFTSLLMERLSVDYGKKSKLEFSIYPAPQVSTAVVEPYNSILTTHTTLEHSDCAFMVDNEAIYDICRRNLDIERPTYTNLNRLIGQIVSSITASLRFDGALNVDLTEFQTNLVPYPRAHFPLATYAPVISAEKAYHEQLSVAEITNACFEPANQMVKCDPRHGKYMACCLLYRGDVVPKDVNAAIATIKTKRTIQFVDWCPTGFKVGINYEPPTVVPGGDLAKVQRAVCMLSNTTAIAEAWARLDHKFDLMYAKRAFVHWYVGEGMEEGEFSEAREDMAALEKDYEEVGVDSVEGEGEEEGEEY

Row | Compound | IC50 (A549 cancer cells; Homo sapiens, A549) [µM] | IC50 (PC-3 cancer cells; Homo sapiens) [µM] | IC50 (HepG2 cancer cells; [7]) [µM] | further results
1 | O=C(/C=C/c1ccccc1)NNC(=O)/C=C/c1ccc(Cl)cc1 [I8] | 9.57 ± 1.92 | 63.2 ± 3.86 | 6.98 ± 1.3 | –
2 | CN(C)c1ccc(/C=C/C(=O)NNC(=O)/C=C/c2ccccc2)cc1 [I14] | 12.8 ± 0.6 | 7.81 ± 1.69 | 3.42 ± 0.49 | IC50 (NRK-52E cells): 7 ± 0.3 µM
3 | COc1cc2ncnc(Nc3ccc(F)c(Cl)c3)c2cc1OCCCN1CCOCC1 [Gefitinib, reference compound] | – | – | – | Cell relative migration (migration rate) (A549 cells; [8]): 3.98%; Cell relative migration (migration rate) (A549 cells; [9]): 7.97%
4 | O=C(/C=C/c1ccccc1)NNC(=O)/C=C/c1ccc([N+](=O)[O-])cc1 [I7] | 4.17 ± 0.93 | 8.79 ± 3.19 | 7.63 ± 1.75 | IC50 (NRK-52E cells): 21 ± 1.75 µM
5 | O=C(/C=C/c1ccccc1)NNC(=O)/C=C/c1ccc(F)cc1 [I9] | 24.9 ± 1.54 | 4.68 ± 0.69 | 7.63 | IC50 (HepG2 cancer cells; MTT assay after 48 h): 4.75 ± 0.36 µM
6 | O=C(/C=C/c1ccccc1)NNC(=O)/C=C/c1ccccc1[N+](=O)[O-] [I2] | 7.55 ± 1.22 | 8.08 ± 2.24 | 9.33 ± 0.95 | –
7 | O=C(/C=C/c1ccccc1)NNC(=O)/C=C/c1cccc(O)c1 [I5] | 5.09 ± 0.08 | 6.68 ± 0.96 | 8.69 ± 1.04 | IC50 (NRK-52E cells): 50 ± 4.4 µM
8 | O=C(/C=C/c1ccccc1)NNC(=O)/C=C/c1ccccc1Cl [I3] | 6.48 ± 0.41 | 7.38 ± 0.24 | 9.53 ± 1.74 | –
9 | O=C(/C=C/c1ccccc1)NNC(=O)/C=C/c1ccccc1 [I1] | 26.7 ± 0.43 | 5.95 ± 1.52 | 8.17 ± 0.46 | –
10 | Cc1ccc(/C=C/C(=O)NNC(=O)/C=C/c2ccccc2)cc1 [I10] | 19.5 ± 4.95 | 70.3 ± 9.88 | 23.6 ± 2.67 | –
11 | CCOc1ccc(/C=C/C(=O)NNC(=O)/C=C/c2ccccc2)cc1 [I13] | 15 ± 4.9 | 22.5 ± 2.64 | 15.4 ± 0.93 | –
12 | CC(C)c1ccc(/C=C/C(=O)NNC(=O)/C=C/c2ccccc2)cc1 [I11] | 43 ± 7.3 | 19.2 ± 6.57 | 18.6 ± 3.9 | –
13 | O=C(/C=C/c1ccccc1)NNC(=O)/C=C/c1cccc([N+](=O)[O-])c1 [I4] | 6.05 ± 0.08 | 15.8 ± 1.67 | 6.32 ± 1 | –
14 | COc1cccc(/C=C/C(=O)NNC(=O)/C=C/c2ccccc2)c1 [I6] | 41 ± 4.47 | 160 ± 10.9 | 46.8 ± 0.14 | –
15 | (E)-3-(3-methoxyphenyl)-N'-((E)-3-(3-methoxyphenyl)acryloyl)acrylohydrazide [I25] | – | – | – | IC50 (A549 cancer cells): 144 ± 8.95 µM; IC50 (PC-3 cancer cells): 142 ± 6.79 µM; IC50 (HepG2 cancer cells; MTT assay after 48 h): 80 ± 4.04 µM
16 | COc1ccc(/C=C/C(=O)NNC(=O)/C=C/c2ccccc2)cc1 [I12] | 10.9 ± 0.25 | 39.4 ± 3.54 | 21.1 ± 4.07 | –
17 | COc1cc(/C=C/C(=O)CC(=O)/C=C/c2ccc(O)c(OC)c2)ccc1O [Curcumin, reference compound] | 69.6 ± 1.18 | 73.4 ± 4.99 | – | IC50 (NRK-52E cells): > 300 µM; IC50 (HepG2 cancer cells; Homo sapiens, HepG2, 48 h): 40.2 ± 1.74 µM

More lines, main results first:

Row | IC50 (A549 cancer cells; Homo sapiens, A549) [µM] | IC50 (PC-3 cancer cells; Homo sapiens) [µM] | IC50 (HepG2 cancer cells; [7]) [µM] | Compound | further results
18 | 5.99 ± 1.07 | 4.17 ± 0.57 | 3.36 ± 0.8 | COc1cccc(/C=C/C(=O)NNC(=O)/C=C/c2ccc([N+](=O)[O-])cc2)c1 [I23] | IC50 (NRK-52E cells): 6.99 ± 1.6 µM; Effect on tubulin polymerization seen by TEM (tubulin [1]): more large nonlinear disorganized aggregations; Effect on tubulin polymerization (tubulin [2]): could stabilize tubulin assembly and promote protofilament assembly in a dosage-dependent manner; Apoptosis effect (Hoechst 33258 staining) (HepG2 cells [3]): a strong apoptotic phenomenon happened; IC50 [4]: 3.36 to 5.99 µM; Percentage of cell, G2/M (HepG2 cells [5]): 20.56%; Cell relative migration (migration rate) (A549 cells; A549, 3 μM, 12 h (control 12.5%)): 8.93%; Cell relative migration (migration rate) (A549 cells; A549, 3 μM, 24 h (control 24.4%)): 18.7%; Cell relative migration (migration rate) (A549 cells; [8]): 6.07%; Cell relative migration (migration rate) (A549 cells; [9]): 13.2%; Effect on cellular microtubule network (immunofluorescence) [6]: agminated microtubule network and wrinkled nucleus were observed
19 | 16.4 ± 0.98 | 80.5 ± 5.43 | 78.5 ± 1.39 | O=C(/C=C/c1ccccc1)NNC(=O)/C=C/C1CC1 [I16] | –
20 | 16.3 ± 3.25 | 21.8 ± 3.15 | > 300 | O=C(/C=C/c1ccccc1)NNC(=O)/C=C/C1CCCCC1 [I20] | –
21 | 13 ± 2.4 | 36 ± 0.7 | 34.5 ± 0.28 | O=C(/C=C/c1ccccc1)NNC(=O)/C=C/c1ccco1 [I17] | –
22 | 60.2 ± 2.37 | 159 ± 5.88 | 43.3 ± 1.1 | O=C(/C=C/c1ccccc1)NNC(=O)/C=C/c1cccnc1 [I22] | –
23 | 26.6 ± 5.08 | 96.4 ± 8.36 | 89.3 ± 8.89 | Cc1ncsc1/C=C/C(=O)NNC(=O)/C=C/c1ccccc1 [I19] | –
24 | 35.8 ± 0.59 | > 300 | 31.1 ± 7.66 | COc1cc(/C=C/C(=O)NNC(=O)/C=C/c2ccccc2)ccc1O [I15] | –
25 | 5.17 ± 0.41 | 15.7 ± 2.98 | 8.08 ± 2.25 | COc1ccc(/C=C/C(=O)NNC(=O)/C=C/c2ccc([N+](=O)[O-])cc2)cc1 [I24, (E)-3-(4-methoxyphenyl)-N'-((E)-3-(4-nitrophenyl)acryloyl)acrylohydrazide] | –
26 | 11 ± 1.72 | 21 ± 2.32 | 14.5 ± 2.56 | COc1cccc(/C=C/C(=O)NNC(=O)/C=C/c2cccc(OC)c2)c1 [I26] | –
27 | 8.27 ± 0.8 | 21.6 ± 0.89 | 20.4 ± 0.86 | O=C(/C=C/c1ccccc1)NNC(=O)/C=C/C1CC=CCC1 (stereo not drawn) [I21] | –
28 | 13.8 ± 0.29 | 15.9 ± 1.14 | 21.1 ± 3.76 | O=C(/C=C/c1ccccc1)NNC(=O)/C=C/c1cccs1 [I18] | –
